Results reported in PubChem BioAssay AID330 (DTP/NCI, 2004).
“And” between values parts separate entries of the source, which are not always exact repeats. Equal entries are not always repeated. Inconclusive results and toxic doses are left out.

Tested on: P388 leukemia ip, CD2F1 mice, survival T/C
Experiment: NCI In Vivo Anticancer Drug Screen. Data for tumor model P388 Leukemia (intraperitoneal) in CD2F1 (CDF1) mice
Details: endpoint: median survival time, higher = longer survival
Outline: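 Mice carrying the transplanted tumor received test compound or vehicle. Survival was recorded in each group, and the value is the treated-group measurement divided by that of the vehicle-treated control group.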

[1] = dose: 50.0 mg/kg/injection, schedule: Q01DX009 (ip), vehicle: saline with Tween-80
[2] = dose: 100.0 mg/kg/injection, schedule: Q01DX009 (ip), vehicle: saline with Tween-80
[3] = dose: 200.0 mg/kg/injection, schedule: Q01DX009 (ip), vehicle: saline with Tween-80
[4] = dose: 50.0 mg/kg/injection, schedule: Q01DX009 (ip), vehicle: Klucel (hydroxypropylcellulose) (HPC)
[5] = dose: 100.0 mg/kg/injection, schedule: Q01DX009 (ip), vehicle: Klucel (hydroxypropylcellulose) (HPC)
[6] = dose: 60.0 mg/kg/injection, schedule: Q01DX005 (ip), vehicle: Klucel (hydroxypropylcellulose) (HPC)
[7] = dose: 120.0 mg/kg/injection, schedule: Q01DX005 (ip), vehicle: Klucel (hydroxypropylcellulose) (HPC)
[8] = dose: 240.0 mg/kg/injection, schedule: Q01DX005 (ip), vehicle: Klucel (hydroxypropylcellulose) (HPC)
[9] = dose: 50.0 mg/kg/injection, schedule: Q01DX005 (ip), vehicle: saline with Tween-80
[10] = dose: 100.0 mg/kg/injection, schedule: Q01DX005 (ip), vehicle: saline with Tween-80
[11] = dose: 200.0 mg/kg/injection, schedule: Q01DX005 (ip), vehicle: saline with Tween-80
[12] = dose: 12.5 mg/kg/injection, schedule: Q01DX009 (ip), vehicle: saline
[13] = dose: 25.0 mg/kg/injection, schedule: Q01DX009 (ip), vehicle: saline with Tween-80
[14] = dose: 50.0 mg/kg/injection, schedule: Q01DX005 (ip), vehicle: Klucel (hydroxypropylcellulose) (HPC)
[15] = dose: 100.0 mg/kg/injection, schedule: Q01DX005 (ip), vehicle: Klucel (hydroxypropylcellulose) (HPC)
[16] = dose: 200.0 mg/kg/injection, schedule: Q01DX005 (ip), vehicle: Klucel (hydroxypropylcellulose) (HPC)

Q: Which T/C (dose: 50.0 mg/kg/injection, schedule: Q04DX002 (ip), vehicle: saline with Tween-80) does the source give for `CC1C(=O)C23CC1CCC2C12COC(=O)C1C(C)(C)C(=O)CC2OC3=O` (centres undefined) here?
A: 105 % of control

Q: What about the T/C (dose: 100.0 mg/kg/injection, schedule: Q04DX002 (ip), vehicle: saline with Tween-80) of the same compound?
A: 93 % of control

Q: And the T/C (dose: 200.0 mg/kg/injection, schedule: Q04DX002 (ip), vehicle: saline with Tween-80)?
A: 94 % of control

Q: Which T/C [1] does the source give for `CC1SC(=S)N(c2ccccc2)C1=O` (centres undefined) here?
A: 104 % of control

Q: And the T/C (dose: 50.0 mg/kg/injection, schedule: Q04DX003 (ip), vehicle: saline with Tween-80)?
A: 112 % of control

Q: What about the T/C [2] of the same compound?
A: 100 % of control

Q: What about the T/C (dose: 100.0 mg/kg/injection, schedule: Q04DX003 (ip), vehicle: saline with Tween-80) of the same compound?
A: 108 % of control

Q: What about the T/C [3] of the same compound?
A: 109 % of control

Q: And the T/C (dose: 200.0 mg/kg/injection, schedule: Q04DX003 (ip), vehicle: saline with Tween-80)?
A: 108 % of control

Q: How did the T/C [4] turn out when `CP1(=S)CCC2=C1CCc1cc(O)ccc12` (centres undefined) was run?
A: 104 % of control

Q: What about the T/C [5] of the same compound?
A: 104 % of control

Q: What about the T/C (dose: 200.0 mg/kg/injection, schedule: Q01DX009 (ip), vehicle: Klucel (hydroxypropylcellulose) (HPC)) of the same compound?
A: 101 % of control

Q: For `CC(O)CCC(=O)c1nc2ccccc2s1` (centres undefined), which T/C [6] is on record?
A: 95 % of control

Q: What about the T/C [7] of the same compound?
A: 100 % of control

Q: And the T/C [8]?
A: 98 % of control

Q: How did the T/C (dose: 15.0 mg/kg/injection, schedule: Q01DX005 (ip), vehicle: distilled water + Tween-80) turn out when `O=C(O)[C@@H](NC(=O)C(Cl)(Cl)Cl)[C@@H]1CC(Br)=NO1` was run?
A: 107 % of control and 118 % of control and 122 % of control

Q: What about the T/C (dose: 30.0 mg/kg/injection, schedule: Q01DX005 (ip), vehicle: distilled water + Tween-80) of the same compound?
A: 107 % of control

Q: And the T/C (dose: 120.0 mg/kg/injection, schedule: Q01DX005 (ip), vehicle: distilled water + Tween-80)?
A: 114 % of control and 98 % of control

Q: For `CCCCCCC(=O)/C=C/c1cc(OC)c(OC)c(OC)c1`, which T/C [1] is on record?
A: 101 % of control

Q: What about the T/C [2] of the same compound?
A: 96 % of control

Q: What about the T/C [3] of the same compound?
A: 92 % of control

Q: With `COC1=CC(=Nc2ccc(N(CCCl)CCCl)cc2)C=CC1=O` as the compound, how does the T/C (dose: 25.0 mg/kg/injection, schedule: Q01DX009 (ip), vehicle: Klucel (hydroxypropylcellulose) (HPC)) read?
A: 159 % of control

Q: What about the T/C [4] of the same compound?
A: 151 % of control and 154 % of control

Q: And the T/C [5]?
A: 159 % of control and 174 % of control

Q: For `COc1ccc(OC)c(/C=N/N=C2\C(=O)Nc3c(Cl)cc(Cl)cc32)c1`, which T/C [9] is on record?
A: 97 % of control

Q: What about the T/C [10] of the same compound?
A: 98 % of control

Q: What about the T/C [11] of the same compound?
A: 92 % of control

Q: How did the T/C [6] turn out when `Cc1cc(OCC(=O)N/N=C/c2ccc(N(CCCl)CCCl)cc2)c2c(=O)c3ccccc3oc2c1` was run?
A: 94 % of control

Q: What about the T/C [7] of the same compound?
A: 117 % of control

Q: What about the T/C [8] of the same compound?
A: 88 % of control

Q: With `NC(N)=N/N=C\c1ccnc2ccccc12` as the compound, how does the T/C (dose: 7.5 mg/kg/injection, schedule: Q01DX005 (ip), vehicle: saline) read?
A: 100 % of control

Q: What about the T/C (dose: 15.0 mg/kg/injection, schedule: Q01DX005 (ip), vehicle: saline) of the same compound?
A: 105 % of control

Q: And the T/C (dose: 30.0 mg/kg/injection, schedule: Q01DX005 (ip), vehicle: saline)?
A: 105 % of control

Q: And the T/C (dose: 60.0 mg/kg/injection, schedule: Q01DX005 (ip), vehicle: saline)?
A: 105 % of control

Q: What does the source list for `[O-][n+]1c2ccccc2[n+]([O-])c2c3ccccc3[nH]c21`?
A: T/C [9]: 95 % of control; T/C [10]: 95 % of control; T/C [11]: 88 % of control

Q: With `CCCCCCCCCCCCCCCCCCCCN1CCOCC1` as the compound, how does the T/C [12] read?
A: 102 % of control

Q: What about the T/C (dose: 25.0 mg/kg/injection, schedule: Q01DX009 (ip), vehicle: saline) of the same compound?
A: 107 % of control

Q: What about the T/C [1] of the same compound?
A: 92 % of control

Q: What about the T/C (dose: 50.0 mg/kg/injection, schedule: Q01DX009 (ip), vehicle: saline) of the same compound?
A: 101 % of control and 97 % of control

Q: What about the T/C [2] of the same compound?
A: 90 % of control

Q: What about the T/C (dose: 100.0 mg/kg/injection, schedule: Q01DX009 (ip), vehicle: saline) of the same compound?
A: 100 % of control

Q: What about the T/C (dose: 200.0 mg/kg/injection, schedule: Q01DX009 (ip), vehicle: saline) of the same compound?
A: 90 % of control

Q: How did the T/C (dose: 0.78 mg/kg/injection, schedule: Q01DX009 (ip), vehicle: saline) turn out when `[Cl][Ni][Cl]` was run?
A: 100 % of control

Q: And the T/C (dose: 1.56 mg/kg/injection, schedule: Q01DX009 (ip), vehicle: saline)?
A: 103 % of control

Q: And the T/C (dose: 3.13 mg/kg/injection, schedule: Q01DX009 (ip), vehicle: saline)?
A: 100 % of control

Q: And the T/C (dose: 6.25 mg/kg/injection, schedule: Q01DX009 (ip), vehicle: saline)?
A: 99 % of control

Q: And the T/C [12]?
A: 99 % of control and 101 % of control

Q: With `COc1ccc(CN2CCCNCC2)cc1` as the compound, how does the T/C (dose: 12.5 mg/kg/injection, schedule: Q01DX009 (ip), vehicle: water) read?
A: 93 % of control

Q: And the T/C (dose: 25.0 mg/kg/injection, schedule: Q01DX009 (ip), vehicle: water)?
A: 100 % of control

Q: And the T/C (dose: 50.0 mg/kg/injection, schedule: Q01DX009 (ip), vehicle: water)?
A: 102 % of control

Q: And the T/C (dose: 100.0 mg/kg/injection, schedule: Q01DX009 (ip), vehicle: water)?
A: 93 % of control

Q: For `OC1CCCSc2ccccc21` (centres undefined), which T/C [13] is on record?
A: 100 % of control and 95 % of control

Q: What about the T/C (dose: 50.0 mg/kg/injection, schedule: Q01DX009 (ip), vehicle: saline + alcohol) of the same compound?
A: 99 % of control

Q: And the T/C [1]?
A: 100 % of control and 97 % of control

Q: And the T/C (dose: 100.0 mg/kg/injection, schedule: Q01DX009 (ip), vehicle: saline + alcohol)?
A: 96 % of control

Q: What about the T/C [2] of the same compound?
A: 98 % of control

Q: What about the T/C (dose: 200.0 mg/kg/injection, schedule: Q01DX009 (ip), vehicle: saline + alcohol) of the same compound?
A: 105 % of control

Q: What about the T/C [3] of the same compound?
A: 118 % of control

Q: What about the T/C (dose: 400.0 mg/kg/injection, schedule: Q01DX009 (ip), vehicle: saline + alcohol) of the same compound?
A: 103 % of control

Q: What does the source list for `ONc1cnc2ccccc2n1`?
A: T/C [14]: 103 % of control; T/C [15]: 100 % of control; T/C [16]: 100 % of control

Q: What does the source list for `O=C1SC(c2ccccc2)=S=C1c1ccccc1`?
A: T/C [1]: 104 % of control; T/C [2]: 104 % of control; T/C [3]: 124 % of control

Q: For `Fc1ccc(Nc2c3ccccc3nc3c2cnn3-c2ccccc2)cc1`, which T/C [14] is on record?
A: 91 % of control

Q: What about the T/C [6] of the same compound?
A: 86 % of control

Q: And the T/C [15]?
A: 87 % of control

Q: And the T/C [16]?
A: 87 % of control

Q: What about the T/C [8] of the same compound?
A: 90 % of control

Q: What does the source list for `NC(=S)N/N=C/c1ccc(OC(=O)COc2ccccc2)cn1`?
A: T/C [13]: 171 % of control; T/C [1]: 205 % of control; T/C [2]: 205 % of control

Q: What does the source list for `COC1(OC)OC2=C(OC1(OC)OC)c1ccccc1C2=O`?
A: T/C (dose: 7.5 mg/kg/injection, schedule: Q01DX005 (ip), vehicle: Klucel (hydroxypropylcellulose) (HPC)): 114 % of control; T/C (dose: 15.0 mg/kg/injection, schedule: Q01DX005 (ip), vehicle: Klucel (hydroxypropylcellulose) (HPC)): 114 % of control and 122 % of control; T/C (dose: 30.0 mg/kg/injection, schedule: Q01DX005 (ip), vehicle: Klucel (hydroxypropylcellulose) (HPC)): 114 % of control and 115 % of control; T/C [6]: 111 % of control and 115 % of control (2×)
